In ChEMBL document CHEMBL1201862, “PubChem BioAssay data set” (2004):
Activity calls are given as the source filed them.

Assays:
[1] = Luminescence Cell-Based Dose Retest to Confirm Inhibitors of Cancer Stem Cells. [Related pubchem assays (depositor defined):AID2717, AID2721]; format: functional; conditions: Homo sapiens
[2] = HEp-2 cell cytotoxicity, dose response, cytotoxicity control for RSV inhibitor project, HTS (AID 2410); format: functional; conditions: human respiratory syncytial virus
Cytochrome P450 2D6 = Cytochrome P450 2D6 (Homo sapiens, UniProt P10635);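 also: CYP2D6 member of a cytochrome P450 panel assay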
Chain of Cytochrome P450 2D6 (P10635 whole entry): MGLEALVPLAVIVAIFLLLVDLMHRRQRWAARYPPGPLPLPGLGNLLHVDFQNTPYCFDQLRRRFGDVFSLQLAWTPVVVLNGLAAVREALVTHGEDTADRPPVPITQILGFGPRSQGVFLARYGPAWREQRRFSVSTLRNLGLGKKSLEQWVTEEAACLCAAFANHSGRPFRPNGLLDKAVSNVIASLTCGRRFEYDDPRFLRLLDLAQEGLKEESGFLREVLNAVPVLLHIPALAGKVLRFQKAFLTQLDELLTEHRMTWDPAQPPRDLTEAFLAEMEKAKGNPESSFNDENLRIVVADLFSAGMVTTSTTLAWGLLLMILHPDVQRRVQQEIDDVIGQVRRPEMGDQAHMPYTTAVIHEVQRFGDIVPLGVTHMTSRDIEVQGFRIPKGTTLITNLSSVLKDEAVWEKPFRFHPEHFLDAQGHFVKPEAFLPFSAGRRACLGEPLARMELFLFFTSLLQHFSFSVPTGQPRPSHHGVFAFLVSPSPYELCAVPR

Streptokinase A = target: T1, Streptokinase A (Streptococcus pyogenes serotype M1, UniProt P10520); experiment: S. pyogenes streptokinase expression inhibitors, potency, dose response, plasminogen activation absorbance, OD405 (AID 1914); format: functional, Streptococcus pyogenes M1 GAS;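 also: secreted streptokinase activity via plasminogen activation per viability signal from cell pellet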
T1 sequence (P10520 whole entry): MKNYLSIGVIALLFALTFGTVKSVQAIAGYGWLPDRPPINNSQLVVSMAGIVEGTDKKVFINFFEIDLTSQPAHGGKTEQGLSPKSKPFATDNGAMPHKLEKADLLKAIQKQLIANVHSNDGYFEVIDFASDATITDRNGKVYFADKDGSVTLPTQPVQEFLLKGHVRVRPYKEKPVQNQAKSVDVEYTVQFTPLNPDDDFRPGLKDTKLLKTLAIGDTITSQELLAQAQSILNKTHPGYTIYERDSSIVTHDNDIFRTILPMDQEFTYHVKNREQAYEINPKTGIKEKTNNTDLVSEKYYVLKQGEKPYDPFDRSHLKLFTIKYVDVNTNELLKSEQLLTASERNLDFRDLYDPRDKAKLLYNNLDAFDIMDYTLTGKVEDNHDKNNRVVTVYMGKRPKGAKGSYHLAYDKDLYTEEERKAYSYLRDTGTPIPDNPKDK

[3] = tested on: Streptococcus sp. 'group A'; experiment: growth inhibition of control SK(-) GAS strain, dose response, counter-screen for streptokinase expression inhibitor project, luminescence, kanamycin, BacTiterGlo, confirmation (AID 1900); format: functional, organism-based
Streptococcus = experiment: Group A Streptococcus viability loss, dose response, counter-screen for streptokinase expression inhibitor project, luminescence, BacTiterGlo (AID 1915); format: functional, organism-based;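 also: potency for reduction of bacterial viability or growth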
[4] = target: T2, Corticotropin-releasing factor receptor 2/Corticotropin-releasing factor-binding protein (Homo sapiens, UniProt P24387+Q13324); experiment: activators of CRF receptor 2 with binding protein – uHTS hits, confirmation (AID 602473); format: functional; conditions: read-out: EC50_Mean
T2 sequence (Q13324 whole entry): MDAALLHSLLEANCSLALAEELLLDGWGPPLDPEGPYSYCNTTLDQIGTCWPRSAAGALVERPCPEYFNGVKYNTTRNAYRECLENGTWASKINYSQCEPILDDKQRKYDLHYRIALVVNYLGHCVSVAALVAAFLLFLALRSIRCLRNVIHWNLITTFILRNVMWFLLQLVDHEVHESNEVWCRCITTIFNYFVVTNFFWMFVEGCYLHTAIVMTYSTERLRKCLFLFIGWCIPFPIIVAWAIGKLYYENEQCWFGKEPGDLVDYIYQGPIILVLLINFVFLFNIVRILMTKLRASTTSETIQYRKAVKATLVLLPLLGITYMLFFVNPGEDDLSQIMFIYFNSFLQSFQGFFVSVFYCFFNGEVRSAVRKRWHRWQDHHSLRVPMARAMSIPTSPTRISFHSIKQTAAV
T2 sequence (P24387 whole entry): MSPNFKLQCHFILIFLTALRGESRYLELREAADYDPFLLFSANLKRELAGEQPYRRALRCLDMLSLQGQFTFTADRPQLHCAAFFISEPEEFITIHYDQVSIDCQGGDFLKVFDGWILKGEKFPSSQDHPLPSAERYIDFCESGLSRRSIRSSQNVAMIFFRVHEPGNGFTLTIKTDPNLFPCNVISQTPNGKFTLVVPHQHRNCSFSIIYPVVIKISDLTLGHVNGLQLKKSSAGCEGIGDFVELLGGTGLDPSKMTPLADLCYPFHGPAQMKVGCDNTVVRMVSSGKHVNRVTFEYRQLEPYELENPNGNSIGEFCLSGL

[5] = Luminescence Cell-Based Dose Response HTS to Identify Activators of Luciferase Translation or Activity in H4 […] Cells. [Related pubchem assays: 1829 (Project Summary), 1814 (Primary HTS)]; format: functional
H4 = experiment: Luminescence Cell-Based Dose Response HTS to Identify Activators of 5'UTR Stem-Loop Driven Prion Protein mRNA Translation in H4 Neuroglioblastoma Cells. [Related pubchem assays: 1829 (Project Summary), 1814 (Primary HTS)]; format: functional; conditions: Homo sapiens
Cytochrome P450 1A2 = target: T3, Cytochrome P450 1A2 (Homo sapiens, UniProt P05177);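 also: PubChem cytochrome P450 panel assay, CYP1A2 panel member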
T3 sequence (P05177 whole entry): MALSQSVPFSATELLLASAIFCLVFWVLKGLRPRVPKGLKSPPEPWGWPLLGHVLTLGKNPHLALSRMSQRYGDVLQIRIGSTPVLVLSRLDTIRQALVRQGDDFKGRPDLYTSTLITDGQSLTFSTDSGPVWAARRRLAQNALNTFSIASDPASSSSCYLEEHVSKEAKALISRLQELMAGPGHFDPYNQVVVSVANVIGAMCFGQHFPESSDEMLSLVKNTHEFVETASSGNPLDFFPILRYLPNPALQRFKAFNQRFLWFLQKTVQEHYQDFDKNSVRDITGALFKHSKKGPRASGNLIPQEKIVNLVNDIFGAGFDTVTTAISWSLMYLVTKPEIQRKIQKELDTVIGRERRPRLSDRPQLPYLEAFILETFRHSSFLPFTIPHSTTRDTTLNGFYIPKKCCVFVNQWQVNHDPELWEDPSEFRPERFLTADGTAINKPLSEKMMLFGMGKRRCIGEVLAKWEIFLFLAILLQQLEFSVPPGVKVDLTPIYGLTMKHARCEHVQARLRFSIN

[6] = control 3'UTR Renilla luciferase suppression, dose response, counter-screen for Shn3 inhibitor project, cell-based, Clone20-Shn3RL, cherry-picked (AID 624133); format: functional
Cytochrome P450 2C19 = Cytochrome P450 2C19 (Homo sapiens, UniProt P33261); experiment: Cytochrome panel assay with activity outcomes. Panel member name: p450-cyp2c19 Compounds with AC50 equal or less than 10 uM are considered active; format: functional; conditions: read-out: AC50
Chain of Cytochrome P450 2C19 (P33261 whole entry): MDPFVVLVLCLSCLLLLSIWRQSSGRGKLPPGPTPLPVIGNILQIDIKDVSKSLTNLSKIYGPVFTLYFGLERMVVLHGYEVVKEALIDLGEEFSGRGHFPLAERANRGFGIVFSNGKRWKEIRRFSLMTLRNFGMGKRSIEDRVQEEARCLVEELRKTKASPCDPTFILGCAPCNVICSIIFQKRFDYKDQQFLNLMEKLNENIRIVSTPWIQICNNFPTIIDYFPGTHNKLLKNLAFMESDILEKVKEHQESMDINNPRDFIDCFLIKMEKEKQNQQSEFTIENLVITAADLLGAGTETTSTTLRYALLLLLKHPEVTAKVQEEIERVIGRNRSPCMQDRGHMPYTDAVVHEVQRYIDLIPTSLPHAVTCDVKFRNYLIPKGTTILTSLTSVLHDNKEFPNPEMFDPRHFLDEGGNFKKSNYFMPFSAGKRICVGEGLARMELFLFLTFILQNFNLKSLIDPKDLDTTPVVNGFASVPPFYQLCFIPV

SMILES: COc1ccc(-c2nc(N)nc(C)c2Oc2ccccc2Br)c(O)c1
- AC50 [1]: 1.96 µM (active)

SMILES: O=C1NC(=O)/C(=C/c2c[nH]c3ccc(Br)cc23)N1
- CC50 [2]: 24.8 µM (active)

SMILES: COc1ccc2[nH]cc(CCNc3ncnc4ccc(-c5cccc(C#N)c5)cc34)c2c1
- AC50 (Cytochrome P450 2D6): 3.16 µM (inconclusive)

SMILES: O=C(Nc1ccc(OC(F)(F)F)cc1)C1CCCN(S(=O)(=O)c2c[nH]cn2)C1 (stereo not given)
- EC50 (Streptokinase A): > 150 µM (not active)
- EC50 [3]: > 150 µM (not active)
- EC50 (Streptococcus): > 150 µM (not active)

SMILES: CC(=O)c1ccc(NC(=S)NC(=O)Cc2ccc(Cl)cc2)cc1
- EC50 [4]: 13.2 µM (active)

SMILES: O=C(Cn1nc(C(F)F)cc1C(F)F)N/N=C/c1ccc2c(c1)OCO2
- AC50 (Cytochrome P450 2D6): 2.82 µM (inconclusive)

SMILES: CC(=O)Nc1ccc(-c2csc(NC(=O)Cc3ccccc3F)n2)cc1
- AC50 [1]: 9.04 µM (active)

SMILES: CCC(C)Sc1cccc(-c2nc3cc(C)ccn3c2NCc2ccccc2)c1 (stereo not given)
- AC50 [1]: 5.14 µM (active)

SMILES: CC(=O)c1cccc(NC(=O)C(=O)Nc2cccc3ccccc23)c1
- EC50 [5]: 13.3 µM (active)
- EC50 (H4): 10.7 µM (active)

SMILES: CCOC(=O)c1c(NC(=O)/C=C\C(=O)O)sc(C)c1-c1ccccc1
- CC50 [2]: 19.4 µM (active)

SMILES: O=CNn1cnc2c(oc3nc(-c4ccccc4)cc(-c4ccco4)c32)c1=O
- CC50 [2]: 9.82 µM (active)

SMILES: COc1ccc(C2CC(c3ccc(Br)cc3)=NN2C(=O)CSC2=NCCS2)cc1 (stereo not given)
- CC50 [2]: 24.1 µM (active)

SMILES: CCOc1cc(/C=N/O)cc(Br)c1OCc1ccc(Cl)cc1
- AC50 [1]: 3.77 µM (active)

SMILES: COc1ccc(-c2cnc(SCC(=O)Nc3nc(C(C)(C)C)cs3)n2Cc2ccco2)cc1
- CC50 [2]: 9.59 µM (active)

SMILES: Cc1ccc(Cn2nnc3c(O)nc(C4CCN(C(=O)Cc5cccs5)CC4)nc32)cc1
- AC50 (Cytochrome P450 2D6): 17.8 µM (inconclusive)
- AC50 (Cytochrome P450 1A2): 31.6 µM (inconclusive)

SMILES: O=[N+]([O-])c1ccc(-c2ccc(/C=N/Nc3nc(N4CCCCC4)nc(N4CCCCC4)n3)o2)cc1
- EC50 [4]: 5.96 µM (active)

SMILES: Cc1ccc2c[nH]nc2c1[N+](=O)[O-]
- CC50 [2]: 42.8 µM (active)

SMILES: CCC(C)c1ccc(C(C)N=C(S)NC2CCCCC2)cc1 (stereo not given)
- EC50 (Streptokinase A): 146 µM (active)
- EC50 [3]: 8.05 µM (active)
- EC50 (Streptococcus): 18.1 µM (active)

SMILES: CCOC(=O)c1ccc(COC(=O)c2ccc3c(c2)-c2ccccc2C3=O)cc1
- CC50 [2]: 20.8 µM (active)

SMILES: O=C(Nc1ccc(-c2cn3ccsc3n2)cc1)C1CC1
- EC50 [5]: 0.487 µM (active)
- EC50 (H4): 4.21 µM (active)

SMILES: Cc1ccccc1OCC(=O)Nc1ccccc1N1CCC(C)CC1
- EC50 (Streptokinase A): 45 µM (active)
- EC50 [3]: 6.64 µM (active)
- EC50 (Streptococcus): 11.1 µM (active)

SMILES: Oc1cccc(Nc2nc(O)c(/C=C3\C=Nc4ccccc43)s2)c1
- CC50 [2]: 15.3 µM (active)

SMILES: Clc1ccccc1CN(Cc1ccccc1)c1ncnc2nc[nH]c12
- EC50 (Streptokinase A): > 150 µM (not active)

SMILES: CN(C)/C=C1\SC(=S)N(c2ccc(Br)cc2)C1=O
- EC50 (Streptokinase A): 17.2 µM (active)
- EC50 [3]: 7.37 µM (active)
- EC50 (Streptococcus): 52.3 µM (active)

SMILES: COc1cc(OC)cc(C(=O)Nc2nc3ccccc3[nH]2)c1
- EC50 (Streptokinase A): > 150 µM (not active)
- EC50 [3]: 7.14 µM (active)
- EC50 (Streptococcus): > 150 µM (not active)

SMILES: C(=N\Nc1nc(N2CCCCCC2)nc(N2CCCCCC2)n1)/c1ccccc1
- CC50 [2]: 28.4 µM (active)

SMILES: CN(C)Cc1ccccc1-c1cc(NCc2ccccc2)ncn1
- AC50 (Cytochrome P450 2D6): 15.8 µM (inconclusive)

SMILES: CC(C)S(=O)(=O)c1csc(NC(=O)Nc2ccc(Cl)cc2)c1Cl
- EC50 (Streptokinase A): 74.3 µM (active)
- EC50 [3]: 12.1 µM (active)
- EC50 (Streptococcus): > 150 µM (not active)

SMILES: COc1ccc(C(=O)NC2CCCCCC2)cc1S(=O)(=O)N1CCOCC1
- EC50 (Streptokinase A): > 150 µM (not active)
- EC50 [3]: > 150 µM (not active)
- EC50 (Streptococcus): > 150 µM (not active)

SMILES: Cc1cccc(CNc2cc(-c3cccc(C#N)c3)ncn2)c1
- AC50 (Cytochrome P450 2D6): 25.1 µM (inconclusive)

SMILES: O=C1C=C(c2cc(C(F)(F)F)cc(C(F)(F)F)c2)C[C@@H](c2ccc(Cl)cc2)C1
- CC50 [2]: 17.3 µM (active)

SMILES: CC(=O)c1cccc(NC(=S)NC(=O)Cc2ccc(Cl)cc2)c1
- EC50 [4]: > 53 µM (inactive)

SMILES: COc1c(C)cc(C(=O)C2CCCN(C(=O)c3cccc(-n4cccn4)c3)C2)cc1C (stereo not given)
- AC50 [6]: > 70 µM (inactive)

SMILES: CCOc1ccc(CCNC(=O)C2CC(=O)N(C3CCCC3)C2)cc1OCC (stereo not given)
- AC50 (Cytochrome P450 2C19): 0.0631 µM (inconclusive)
- AC50 (Cytochrome P450 2D6): 0.0282 µM (inconclusive)

SMILES: c1ccc(CCNc2nc(-c3ccccn3)cs2)cc1
- EC50 (Streptokinase A): > 150 µM (not active)
- EC50 [3]: 7.29 µM (active)
- EC50 (Streptococcus): 14.2 µM (active)

SMILES: O=C(Nc1ccccc1)N1CCC2(CCNCC2)CC1
- AC50 (Cytochrome P450 2D6): 25.1 µM (inconclusive)

SMILES: CC(=O)Nc1ccc(C2CC(c3ccc(Cl)cc3)=NN2c2ccccc2)cc1 (stereo not given)
- CC50 [2]: 47.5 µM (active)
- AC50 [1]: 1.64 µM (active)

SMILES: CC(C)c1nc(N2CCCC2)c(C#N)c2c1CCCC2
- EC50 (Streptokinase A): > 150 µM (not active)
- EC50 [3]: 4.2 µM (active)
- EC50 (Streptococcus): 7.01 µM (active)

SMILES: FC(F)(F)c1ccccc1-c1cc(NCc2cccs2)ncn1
- AC50 (Cytochrome P450 2D6): 25.1 µM (inconclusive)

SMILES: O=c1c(-c2ccccc2)coc2cc(O)ccc12 [7-HYDROXY ISOFLAVONE]
- CC50 [2]: 46.3 µM (active)

SMILES: N=C(N)S[C@H]1c2ccccc2-c2cc([N+](=O)[O-])ccc21
- AC50 (Cytochrome P450 2C19): 0.631 µM (inconclusive)
- AC50 (Cytochrome P450 2D6): 2.51 µM (inconclusive)
